Target: human β2 adrenergic receptor (Homo sapiens, UniProt P07550)
Experiment: cell-based
Settings: not given
Procedure: The activity of the test compounds on human β-adrenergic receptors was determined with Chinese hamster ovary (CHO) cells transfected with human β2, or β1 adrenergic receptors. Agonist activity is indicated by increased cAMP levels in the CHO cells. Selectivity of the test compounds for the β3 receptor was assessed by comparison with results in β2 and β1 adrenergic receptor transfected cells.
1). Chinese hamster ovary (CHO) cells transfected with human β2, or β1 adrenergic receptors were used in the assay.
2). Cells were grown to confluent conditions in 24 well plates.
3). Drugs were dissolved in DMSO at a concentration of 10 μM.
4). Cells were incubated with drug at 10 nM concentration for 10 min at 37° C.
5). Cell cAMP concentrations were assayed using a scintillation proximity assay kit from Amersham Corp., Chicago, Ill.
6). Activities for the test compounds are expressed as a percentage of the isoproterenol response.
Production of the CHO cells transfected with human β2, or β1 adrenergic receptors, and compound test procedures utilizing the CHO cells, are described by Emorine et al. in their article "Molecular Characterization of the Human Beta3 -Adrenergic Receptor", Science 1989, 245(8), 1118-1121 and by Muzzin et al. in the article "An Adipose Tissue-Specific Beta3 -Adrenergic Receptor", J. Biol. Chem.1991, 266, 24053-24058.
^a Human β receptors expressed in Chinese hamster ovary cells,
compounds tested at 10 nM, results expressed as % of isoproterenol
activity (increase in cAMP) at 10 μM. EC50 (μM) values
determined for selected compounds.

Sequence of human β2 adrenergic receptor (P07550 whole entry): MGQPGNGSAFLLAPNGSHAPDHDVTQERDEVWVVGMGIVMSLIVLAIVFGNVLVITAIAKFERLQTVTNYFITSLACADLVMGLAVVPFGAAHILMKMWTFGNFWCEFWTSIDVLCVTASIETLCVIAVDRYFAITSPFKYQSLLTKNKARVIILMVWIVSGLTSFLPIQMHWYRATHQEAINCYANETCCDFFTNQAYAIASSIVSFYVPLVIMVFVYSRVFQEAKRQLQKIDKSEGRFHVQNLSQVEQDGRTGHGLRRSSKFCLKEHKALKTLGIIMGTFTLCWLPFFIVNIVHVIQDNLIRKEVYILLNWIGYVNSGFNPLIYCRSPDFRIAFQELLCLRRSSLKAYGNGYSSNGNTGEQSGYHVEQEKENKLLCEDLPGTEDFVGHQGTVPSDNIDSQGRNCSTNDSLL

| SMILES | EC50 [nM] |
| --- | --- |
| CC(Cc1ccc2c(c1)OC(C(=O)O)(C(=O)OCC1CC1)O2)NCC(O)c1cccc(Cl)c1 (centres unmarked) [Example 69, 5-{2-[2-(3-Chloro-phenyl)-2-hydroxy-ethylamino]-propyl}-benzo[1,3]dioxole-2,2-dicarboxylic acid cyclopropylmethyl ester] | 79 |

Same assay, conditions: 10 min; compounds tested at 10 nM, isoproterenol at 10 μM; CHO cells, 10 min at 37° C; read-out: β2: % of isoproterenol activity (increase in cAMP)

| SMILES | activation at 0.01 µM [%] |
| --- | --- |
| C[C@H](Cc1ccc2c(c1)OC(C(=O)OC1CCCCCCC1)(C(=O)OC1CCCCCCC1)O2)NC[C@H](O)c1cccc(Cl)c1 [Example 100, 5-{(2R)-2-[(2R)-2-(3-Chloro-phenyl)-2-hydroxy-ethylamino]-propyl}-benzo[1,3]dioxole-2,2-dicarboxylic acid dicyclooctyl ester] | 2 |
| CCC(C)(C)C(=O)OCOC(=O)C1(C(=O)OCOC(=O)C(C)(C)CC)Oc2ccc(CC(C)NCC(O)c3cccc(Cl)c3)cc2O1 (centres unmarked) [Example 58, 5-{2-[2-(3-Chloro-phenyl)-2-hydroxyethylamino]propyl}benzo[1,3] dioxole-2,2-dicarboxylic acid bis-(2,2-dimethyl-butyryloxymethyl) ester] | 8 |
| C[C@H](Cc1ccc2c(c1)OC(C(=O)OCCCOCc1ccccc1)(C(=O)OCCCOCc1ccccc1)O2)NC[C@H](O)c1cccc(Cl)c1 [Example 104, 5-{(2R)-2-[(2R)-2-(3-Chloro-phenyl)-2-hydroxy-ethylamino]-propyl}benzo[1,3]dioxole-2,2-dicarboxylic acid bis-(3-benzyloxy-propyl)ester] | 2 |
| CC(Cc1ccc2c(c1)OC(C(=O)OC(C)OC(=O)c1ccccc1)(C(=O)OC(C)OC(=O)c1ccccc1)O2)NCC(O)c1cccc(Cl)c1 (centres unmarked) [Example 57, 5-{2-[2-(3-Chloro-phenyl)-2-hydroxyethylamino]propyl}benzo[1,3] dioxole-2,2-dicarboxylic acid bis-(benzoyloxy-ethyl) ester] | 0 |
| CC(C)CCC(=O)OCOC(=O)C1(C(=O)OCOC(=O)CCC(C)C)Oc2ccc(CC(C)NCC(O)c3cccc(Cl)c3)cc2O1 (centres unmarked) [Example 47, 5-{2-[2-(3-Chloro-phenyl)-2-hydroxyethylamino]propyl}benzo[1,3] dioxole-2,2-dicarboxylic acid bis-(4-methyl-pentanoyloxymethyl) ester] | 0 |
| C=CCOC(=O)C1(C(=O)OCC=C)Oc2ccc(C[C@@H](C)NC[C@H](O)c3cccc(Cl)c3)cc2O1 [Example 98, 5-{(2R)-2-[(2R)-2-(3-Chloro-phenyl)-2-hydroxy-ethylamino]-propyl}-benzo[1,3]dioxole-2,2-dicarboxylic acid diallyl ester] | 7 |
| CCN(CC)C(=O)COC(=O)C1(C(=O)OCC(=O)N(CC)CC)Oc2ccc(C[C@@H](C)NC[C@H](O)c3cccc(Cl)c3)cc2O1 [Example 68, 5-{(2R)-2-[(2R)-2-(3-Chloro-phenyl)-2-hydroxy-ethylamino]-propyl}-benzo[1,3]dioxole-2,2-dicarboxylic acid bis-diethylcarbamoylmethyl ester] | 5 |
| CCCCCCC(=O)OCOC(=O)C1(C(=O)OCOC(=O)CCCCCC)Oc2ccc(CC(C)NCC(O)c3cccc(Cl)c3)cc2O1 (centres unmarked) [Example 46, 5-{2-[2-(3-Chloro-phenyl)-2-hydroxyethylamino]propyl}benzo[1,3] dioxole-2,2-dicarboxylic acid bis-heptanoyloxymethyl ester] | 16 |
| CC(Cc1ccc2c(c1)OC(C(=O)OCCCC1CCCC1)(C(=O)OCCCC1CCCC1)O2)NCC(O)c1cccc(Cl)c1 (centres unmarked) [Example 37, 5-{2-[2-(3-Chloro-phenyl)-2-hydroxy-ethylamino]-propyl}-benzo[1,3]dioxole-2,2-dicarboxylic acid bis-(3-cyclopentyl-propyl) ester] | 3 |
| CCCC(=O)OCOC(=O)C1(C(=O)OCOC(=O)CCC)Oc2ccc(CC(C)NCC(O)c3cccc(Cl)c3)cc2O1 (centres unmarked) [Example 44, 5-{2-[2-(3-Chloro-phenyl)-2-hydroxyethylamino]propyl}benzo[1,3] dioxole-2,2-dicarboxylic acid bis-butyryloxymethyl ester] | 0 |
| CCCCCCCCCCOC(=O)C1(C(=O)OCCCCCCCCCC)Oc2ccc(CC(C)NCC(O)c3cccc(Cl)c3)cc2O1 (centres unmarked) [Example 19, 5-{2-[2-(3-Chloro-phenyl)-2-hydroxy-ethylamino]-propyl}-benzo[1,3]dioxole-2,2-dicarboxylic acid bis-decyl ester] | 2 |
| CCCCCCCCCCCCOC(=O)C1(C(=O)OCCCCCCCCCCCC)Oc2ccc(CC(C)NCC(O)c3cccc(Cl)c3)cc2O1 (centres unmarked) [Example 20, 5-{2-[2-(3-Chloro-phenyl)-2-hydroxy-ethylamino]-propyl}-benzo[1,3]dioxole-2,2-dicarboxylic acid didodecyl ester] | 0 |
| C[C@H](Cc1ccc2c(c1)OC(C(=O)OC/C=C\COCc1ccccc1)(C(=O)OC/C=C\COCc1ccccc1)O2)NC[C@H](O)c1cccc(Cl)c1 [Example 101, 5-{(2R)-2-[(2R)-2-(3-Chloro-phenyl)-2-hydroxy-ethylamino]-propyl}-benzo[1,3]dioxole-2,2-dicarboxylic acid bis-(4-benzyloxy-but-2-enyl)ester] | 3 |
| C[C@H](Cc1ccc2c(c1)OC(C(=O)O)(C(=O)OCC13CC4CC(CC(C4)C1)C3)O2)NC[C@H](O)c1cccc(Cl)c1 (stereo partly drawn) [Example 79, 5-{(2R)-2-[(2R)-2-(3-Chloro-phenyl)-2-hydroxy-ethylamino]-propyl}-benzo[1,3]dioxole-2,2-dicarboxylic acid adamantan-1-ylmethyl ester] | 0 |
| CCC(CC)COC(=O)C1(C(=O)OCC(CC)CC)Oc2ccc(C[C@@H](C)NC[C@H](O)c3cccc(Cl)c3)cc2O1 [Example 74, 5-{(2R)-2-[(2R)-2-(3-Chloro-phenyl)-2-hydroxy-ethylamino]-propyl}-benzo[1,3]dioxole-2,2-dicarboxylic acid bis-(2-ethylbutyl) ester] | 0 |
| CC(Cc1ccc2c(c1)OC(C(=O)OCC(=O)OC(C)C)(C(=O)OCC(=O)OC(C)C)O2)NCC(O)c1cccc(Cl)c1 (centres unmarked) [Example 27, 5-{2-[2-(3-Chloro-phenyl)-2-hydroxy-ethylamino]-propyl}-benzo[1,3]dioxole-2,2-dicarboxylic acid bis-isopropoxycarbonylmethyl ester] | 5 |

Same assay, conditions: CHO, 10 min, read-out: β2: % of isoproterenol activity (increase in cAMP)

| SMILES | activation at 0.01 µM [%] |
| --- | --- |
| CC(Cc1ccc2c(c1)OC(C(=O)OCCC[Si](C)(C)C)(C(=O)OCCC[Si](C)(C)C)O2)NCC(O)c1cccc(Cl)c1 (centres unmarked) [Example 32, 5-{2-[2-(3-Chloro-phenyl)-2-hydroxy-ethylamino]-propyl}-benzo[1,3]dioxole-2,2-dicarboxylic acid bis-(3-trimethylsilanyl-propyl) ester] | 2 |
| CCOCCOC(=O)C1(C(=O)O)Oc2ccc(C[C@@H](C)NC[C@H](O)c3cccc(Cl)c3)cc2O1 (stereo partly drawn) [Example 95, 5-{(2R)-2-[(2R)-2-(3-Chloro-phenyl)-2-hydroxy-ethylamino]-propyl}-benzo[1,3]dioxole-2,2-dicarboxylic acid (2-ethoxy-ethyl) ester] | 0 |
| CC(Cc1ccc2c(c1)OC(C(=O)OC[Si](C)(C)C)(C(=O)OC[Si](C)(C)C)O2)NCC(O)c1cccc(Cl)c1 (centres unmarked) [Example 30, 5-{2-[2-(3-Chloro-phenyl)-2-hydroxy-ethylamino]-propyl}-benzo[1,3]dioxole-2,2-dicarboxylic acid bis-trimethylsilanylmethyl ester] | 0 |
